Experiments:
Experiment in all cases: kinome screen (33PanQinase)
Format in all cases: biochemical
BMX = biological target: T1, BMX (Homo sapiens, UniProt P51813)
T1 construct: purchased Reaction Biology Europe GmbH (formerly ProQinase)
T1 sequence (P51813 1-675): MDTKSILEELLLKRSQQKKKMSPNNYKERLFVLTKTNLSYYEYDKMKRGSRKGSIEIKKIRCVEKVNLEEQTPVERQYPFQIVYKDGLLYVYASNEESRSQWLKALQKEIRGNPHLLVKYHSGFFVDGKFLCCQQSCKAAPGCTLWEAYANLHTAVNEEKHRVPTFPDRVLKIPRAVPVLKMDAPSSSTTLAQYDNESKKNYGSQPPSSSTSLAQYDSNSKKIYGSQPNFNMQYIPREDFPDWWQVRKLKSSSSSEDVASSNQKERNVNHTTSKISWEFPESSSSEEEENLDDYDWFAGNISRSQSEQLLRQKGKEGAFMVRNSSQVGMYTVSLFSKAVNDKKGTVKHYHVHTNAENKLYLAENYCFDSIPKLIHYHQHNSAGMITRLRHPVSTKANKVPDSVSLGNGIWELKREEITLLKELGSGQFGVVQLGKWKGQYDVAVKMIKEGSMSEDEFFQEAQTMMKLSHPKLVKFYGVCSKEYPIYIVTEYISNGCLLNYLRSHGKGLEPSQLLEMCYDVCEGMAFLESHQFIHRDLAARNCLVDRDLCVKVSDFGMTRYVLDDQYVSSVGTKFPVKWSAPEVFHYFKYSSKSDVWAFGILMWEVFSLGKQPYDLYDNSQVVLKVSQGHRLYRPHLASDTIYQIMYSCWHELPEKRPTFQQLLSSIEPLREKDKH
Method: (§1) The Kinome Screening was performed by Reaction Biology Europe GmbH (http://reactionbiology.com; Freiburg i. Br., Germany).

BRAF = biological target: T2, BRAF (Homo sapiens, UniProt P15056)
T2 construct: purchased Reaction Biology Europe GmbH (formerly ProQinase)
Method: as §1

CDC42BPA = biological target: T3, CDC42BPA (Homo sapiens, UniProt Q5VT25)
T3 construct: purchased Reaction Biology Europe GmbH (formerly ProQinase)
T3 sequence (Q5VT25 whole entry): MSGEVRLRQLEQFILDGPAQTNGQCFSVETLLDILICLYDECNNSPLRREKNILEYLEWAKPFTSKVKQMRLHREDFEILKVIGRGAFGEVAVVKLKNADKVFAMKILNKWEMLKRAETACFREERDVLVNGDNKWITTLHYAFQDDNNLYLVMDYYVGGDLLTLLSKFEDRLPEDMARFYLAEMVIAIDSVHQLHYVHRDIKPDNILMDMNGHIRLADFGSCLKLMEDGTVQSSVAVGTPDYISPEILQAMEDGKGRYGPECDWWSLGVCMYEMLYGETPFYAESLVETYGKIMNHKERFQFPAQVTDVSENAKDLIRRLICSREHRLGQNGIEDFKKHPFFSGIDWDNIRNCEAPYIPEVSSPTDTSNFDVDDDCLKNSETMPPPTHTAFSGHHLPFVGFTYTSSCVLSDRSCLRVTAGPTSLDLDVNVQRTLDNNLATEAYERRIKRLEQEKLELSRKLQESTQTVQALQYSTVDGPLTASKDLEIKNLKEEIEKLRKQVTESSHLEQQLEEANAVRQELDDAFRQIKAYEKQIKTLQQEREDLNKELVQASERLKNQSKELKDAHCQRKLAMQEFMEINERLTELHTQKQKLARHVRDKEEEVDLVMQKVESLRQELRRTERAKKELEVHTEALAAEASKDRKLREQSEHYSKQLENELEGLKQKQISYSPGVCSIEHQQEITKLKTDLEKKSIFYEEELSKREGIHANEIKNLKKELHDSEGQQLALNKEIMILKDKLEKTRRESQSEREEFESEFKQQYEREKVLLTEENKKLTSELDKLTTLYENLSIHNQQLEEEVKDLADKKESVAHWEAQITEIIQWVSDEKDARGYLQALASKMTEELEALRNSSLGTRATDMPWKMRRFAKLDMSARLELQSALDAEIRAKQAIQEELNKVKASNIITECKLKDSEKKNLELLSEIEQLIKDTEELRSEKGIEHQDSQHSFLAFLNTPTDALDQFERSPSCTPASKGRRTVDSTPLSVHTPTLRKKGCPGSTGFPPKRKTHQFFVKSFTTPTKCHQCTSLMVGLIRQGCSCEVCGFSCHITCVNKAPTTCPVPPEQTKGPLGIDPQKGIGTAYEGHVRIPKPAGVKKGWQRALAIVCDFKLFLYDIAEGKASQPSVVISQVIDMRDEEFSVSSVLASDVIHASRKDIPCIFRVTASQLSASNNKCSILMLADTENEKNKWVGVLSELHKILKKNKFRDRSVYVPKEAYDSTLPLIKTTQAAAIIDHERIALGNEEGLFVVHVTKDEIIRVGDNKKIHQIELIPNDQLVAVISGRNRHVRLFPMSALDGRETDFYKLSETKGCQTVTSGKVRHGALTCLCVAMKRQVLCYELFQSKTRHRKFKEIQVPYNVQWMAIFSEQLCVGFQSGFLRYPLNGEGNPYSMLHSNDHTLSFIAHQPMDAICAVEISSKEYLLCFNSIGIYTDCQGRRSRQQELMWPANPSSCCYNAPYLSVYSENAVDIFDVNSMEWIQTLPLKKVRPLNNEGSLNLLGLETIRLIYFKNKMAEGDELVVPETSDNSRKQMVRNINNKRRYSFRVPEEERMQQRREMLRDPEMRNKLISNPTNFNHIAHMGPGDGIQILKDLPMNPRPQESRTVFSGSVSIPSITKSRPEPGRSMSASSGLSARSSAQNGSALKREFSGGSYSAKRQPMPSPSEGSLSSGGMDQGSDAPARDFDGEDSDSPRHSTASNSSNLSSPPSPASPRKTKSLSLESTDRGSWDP
Method: as §1

CDK20/CycH = biological target: T4, CDK20/CycH (Homo sapiens, UniProt Q8IZL9)
T4 construct: purchased Reaction Biology Europe GmbH (formerly ProQinase)
T4 sequence (Q8IZL9 whole entry): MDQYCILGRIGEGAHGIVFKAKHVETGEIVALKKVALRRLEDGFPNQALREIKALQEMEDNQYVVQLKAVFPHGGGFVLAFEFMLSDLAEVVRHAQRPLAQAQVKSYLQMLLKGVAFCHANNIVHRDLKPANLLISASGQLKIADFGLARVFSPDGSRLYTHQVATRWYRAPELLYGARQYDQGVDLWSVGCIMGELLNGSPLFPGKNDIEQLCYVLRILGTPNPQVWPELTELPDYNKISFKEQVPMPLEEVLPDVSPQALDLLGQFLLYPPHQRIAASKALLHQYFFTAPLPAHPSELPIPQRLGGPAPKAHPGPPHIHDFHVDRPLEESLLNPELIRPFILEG
T4 sequence (P51946 whole entry partner): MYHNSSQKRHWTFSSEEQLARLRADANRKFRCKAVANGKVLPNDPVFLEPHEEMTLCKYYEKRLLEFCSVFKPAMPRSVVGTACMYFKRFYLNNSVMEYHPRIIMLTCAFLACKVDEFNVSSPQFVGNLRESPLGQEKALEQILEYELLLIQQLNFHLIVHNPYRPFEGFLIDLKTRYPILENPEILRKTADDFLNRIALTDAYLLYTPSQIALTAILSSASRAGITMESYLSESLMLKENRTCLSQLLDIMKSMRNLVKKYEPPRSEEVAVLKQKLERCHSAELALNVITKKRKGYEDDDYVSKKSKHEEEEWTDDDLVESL
Method: as §1

CDK9/CycK = biological target: T5, CDK9/CycK (Homo sapiens, UniProt P50750)
T5 construct: purchased Reaction Biology Europe GmbH (formerly ProQinase)
Method: as §1

EPHA4 = biological target: T6, EPHA4 (Homo sapiens, UniProt P54764)
T6 construct: purchased Reaction Biology Europe GmbH (formerly ProQinase)
Method: as §1

GRK5 = biological target: T7, GRK5 (Homo sapiens, UniProt P34947)
T7 construct: purchased Reaction Biology Europe GmbH (formerly ProQinase)
Method: as §1

HRI = biological target: T8, HRI (Homo sapiens, UniProt Q9BQI3)
T8 construct: purchased Reaction Biology Europe GmbH (formerly ProQinase)
T8 sequence (Q9BQI3 whole entry): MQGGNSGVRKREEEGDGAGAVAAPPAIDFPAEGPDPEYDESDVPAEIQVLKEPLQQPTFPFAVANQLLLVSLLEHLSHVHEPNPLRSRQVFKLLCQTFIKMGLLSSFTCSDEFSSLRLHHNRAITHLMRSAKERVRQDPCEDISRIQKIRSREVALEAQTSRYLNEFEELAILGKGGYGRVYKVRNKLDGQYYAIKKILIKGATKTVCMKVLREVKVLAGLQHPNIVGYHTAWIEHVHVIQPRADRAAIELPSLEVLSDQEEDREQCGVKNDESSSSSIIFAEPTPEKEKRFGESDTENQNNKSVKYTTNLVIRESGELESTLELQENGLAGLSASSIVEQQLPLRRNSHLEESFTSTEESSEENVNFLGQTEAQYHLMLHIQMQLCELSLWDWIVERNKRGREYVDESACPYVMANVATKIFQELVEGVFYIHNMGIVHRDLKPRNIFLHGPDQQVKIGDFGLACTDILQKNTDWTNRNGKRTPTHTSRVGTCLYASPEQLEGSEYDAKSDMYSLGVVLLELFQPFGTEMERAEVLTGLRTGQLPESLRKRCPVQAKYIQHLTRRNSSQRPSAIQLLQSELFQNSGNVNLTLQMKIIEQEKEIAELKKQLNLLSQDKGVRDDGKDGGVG
Method: as §1

MAP3K11 = biological target: T9, MAP3K11 (Homo sapiens, UniProt Q16584)
T9 construct: purchased Reaction Biology Europe GmbH (formerly ProQinase)
T9 sequence (Q16584 whole entry): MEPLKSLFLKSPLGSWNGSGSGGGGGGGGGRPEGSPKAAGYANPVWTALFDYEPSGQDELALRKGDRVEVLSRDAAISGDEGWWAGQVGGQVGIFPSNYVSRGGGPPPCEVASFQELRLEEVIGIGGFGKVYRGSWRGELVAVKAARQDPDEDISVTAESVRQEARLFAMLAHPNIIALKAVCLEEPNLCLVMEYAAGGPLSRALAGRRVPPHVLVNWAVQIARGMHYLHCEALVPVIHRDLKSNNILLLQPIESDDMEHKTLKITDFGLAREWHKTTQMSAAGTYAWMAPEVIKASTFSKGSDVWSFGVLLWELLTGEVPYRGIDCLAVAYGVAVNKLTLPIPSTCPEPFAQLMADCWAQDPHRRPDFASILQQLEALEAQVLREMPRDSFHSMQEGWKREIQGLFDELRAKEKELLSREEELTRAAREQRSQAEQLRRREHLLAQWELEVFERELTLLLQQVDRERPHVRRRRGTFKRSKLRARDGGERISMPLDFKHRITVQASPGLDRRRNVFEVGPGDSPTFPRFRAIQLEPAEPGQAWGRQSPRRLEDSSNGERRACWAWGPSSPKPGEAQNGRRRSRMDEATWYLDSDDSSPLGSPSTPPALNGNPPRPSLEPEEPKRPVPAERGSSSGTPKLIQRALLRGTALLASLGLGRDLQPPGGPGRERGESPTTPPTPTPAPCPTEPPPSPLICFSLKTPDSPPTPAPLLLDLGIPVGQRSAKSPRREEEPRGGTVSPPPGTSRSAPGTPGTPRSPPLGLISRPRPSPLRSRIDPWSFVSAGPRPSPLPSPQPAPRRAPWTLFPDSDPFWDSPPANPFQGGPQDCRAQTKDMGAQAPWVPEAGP
Method: as §1

PIM2 = biological target: T10, PIM2 (Homo sapiens, UniProt Q9P1W9)
T10 construct: purchased Reaction Biology Europe GmbH (formerly ProQinase)
T10 sequence (Q9P1W9 whole entry): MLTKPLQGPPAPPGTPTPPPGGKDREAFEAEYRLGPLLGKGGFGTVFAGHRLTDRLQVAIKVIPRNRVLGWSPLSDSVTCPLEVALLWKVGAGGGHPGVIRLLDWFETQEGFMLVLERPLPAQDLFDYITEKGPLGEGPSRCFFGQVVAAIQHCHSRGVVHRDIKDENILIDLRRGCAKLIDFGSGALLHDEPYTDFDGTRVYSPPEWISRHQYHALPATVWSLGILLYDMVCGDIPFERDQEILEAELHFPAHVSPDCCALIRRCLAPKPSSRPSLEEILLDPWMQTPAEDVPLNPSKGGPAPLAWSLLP
Method: as §1

PKCγ = biological target: T11, PKCγ (Homo sapiens, UniProt P05129)
T11 construct: purchased Reaction Biology Europe GmbH (formerly ProQinase)
Method: as §1

SNARK = biological target: T12, SNARK (Homo sapiens, UniProt Q9H093)
T12 construct: purchased Reaction Biology Europe GmbH (formerly ProQinase)
T12 sequence (Q9H093 1-628): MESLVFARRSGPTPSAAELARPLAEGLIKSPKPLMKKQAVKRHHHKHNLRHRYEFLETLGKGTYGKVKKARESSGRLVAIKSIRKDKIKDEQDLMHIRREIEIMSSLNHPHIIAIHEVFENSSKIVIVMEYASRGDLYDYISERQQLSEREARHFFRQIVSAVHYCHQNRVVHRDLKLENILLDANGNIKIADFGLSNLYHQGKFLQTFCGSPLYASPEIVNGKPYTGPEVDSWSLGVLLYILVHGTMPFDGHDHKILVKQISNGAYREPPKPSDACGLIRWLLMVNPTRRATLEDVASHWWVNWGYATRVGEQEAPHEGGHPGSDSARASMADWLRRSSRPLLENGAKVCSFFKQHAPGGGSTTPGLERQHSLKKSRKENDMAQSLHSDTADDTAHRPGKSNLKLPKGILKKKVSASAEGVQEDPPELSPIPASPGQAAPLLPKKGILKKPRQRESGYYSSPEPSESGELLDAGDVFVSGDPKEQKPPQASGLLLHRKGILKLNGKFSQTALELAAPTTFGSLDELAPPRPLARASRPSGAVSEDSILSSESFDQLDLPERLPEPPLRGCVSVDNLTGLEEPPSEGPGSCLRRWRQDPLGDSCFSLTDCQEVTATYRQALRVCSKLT
Method: as §1

p38Δ = biological target: T13, p38Δ (Homo sapiens, UniProt O15264)
T13 construct: purchased Reaction Biology Europe GmbH (formerly ProQinase)
T13 sequence (O15264 1-365): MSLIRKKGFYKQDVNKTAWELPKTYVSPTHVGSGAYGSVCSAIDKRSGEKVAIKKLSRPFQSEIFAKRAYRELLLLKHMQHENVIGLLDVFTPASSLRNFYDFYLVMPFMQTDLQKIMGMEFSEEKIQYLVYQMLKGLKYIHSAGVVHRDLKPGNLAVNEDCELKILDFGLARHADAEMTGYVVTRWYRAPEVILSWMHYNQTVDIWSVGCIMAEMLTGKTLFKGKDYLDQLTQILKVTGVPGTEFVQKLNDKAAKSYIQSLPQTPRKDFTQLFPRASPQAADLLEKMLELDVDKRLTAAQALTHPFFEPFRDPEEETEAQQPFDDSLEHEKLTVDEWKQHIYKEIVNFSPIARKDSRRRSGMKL
Method: as §1

c1ccc(CNc2cc(-c3c[nH]c4ncccc34)ccn2)cc1 [meriolin 36]
residual kinase activity (BMX; 0.3 µM): 109 % of control | residual kinase activity (BMX; 3 µM): 49 % of control | residual kinase activity (BRAF; 0.3 µM): 66 % of control | residual kinase activity (BRAF; 3 µM): 50 % of control | residual kinase activity (CDC42BPA; 0.3 µM): 1 % of control | residual kinase activity (CDC42BPA; 3 µM): 1 % of control | residual kinase activity (CDK20/CycH; 0.3 µM): 29 % of control | residual kinase activity (CDK20/CycH; 3 µM): 13 % of control | residual kinase activity (CDK9/CycK; 0.3 µM): 2 % of control | residual kinase activity (CDK9/CycK; 3 µM): 0 % of control | residual kinase activity (EPHA4; 0.3 µM): 93 % of control | residual kinase activity (EPHA4; 3 µM): 72 % of control | residual kinase activity (GRK5; 0.3 µM): 119 % of control | residual kinase activity (GRK5; 3 µM): 74 % of control | residual kinase activity (HRI; 0.3 µM): 93 % of control | residual kinase activity (HRI; 3 µM): 71 % of control | residual kinase activity (MAP3K11; 0.3 µM): 45 % of control | residual kinase activity (MAP3K11; 3 µM): 4 % of control | residual kinase activity (PIM2; 0.3 µM): 119 % of control | residual kinase activity (PIM2; 3 µM): 90 % of control | residual kinase activity (PKCγ; 0.3 µM): 33 % of control | residual kinase activity (PKCγ; 3 µM): 5 % of control | residual kinase activity (SNARK; 0.3 µM): 30 % of control | residual kinase activity (SNARK; 3 µM): 5 % of control | residual kinase activity (p38Δ; 0.3 µM): 59 % of control | residual kinase activity (p38Δ; 3 µM): 14 % of control

COc1ccnc2[nH]cc(-c3cc(N)nc(N)c3)c12 [meriolin 16]
residual kinase activity (BMX; 0.03 µM): 118 % of control | residual kinase activity (BMX; 0.3 µM): 103 % of control | residual kinase activity (BRAF; 0.03 µM): 94 % of control | residual kinase activity (CDC42BPA; 0.03 µM): 53 % of control | residual kinase activity (CDC42BPA; 0.3 µM): 7 % of control | residual kinase activity (CDK20/CycH; 0.03 µM): 38 % of control | residual kinase activity (CDK20/CycH; 0.3 µM): 33 % of control | residual kinase activity (CDK9/CycK; 0.03 µM): 7 % of control | residual kinase activity (CDK9/CycK; 0.3 µM): 0 % of control | residual kinase activity (EPHA4; 0.03 µM): 105 % of control | residual kinase activity (EPHA4; 0.3 µM): 85 % of control | residual kinase activity (GRK5; 0.03 µM): 118 % of control | residual kinase activity (GRK5; 0.3 µM): 91 % of control | residual kinase activity (HRI; 0.03 µM): 98 % of control | residual kinase activity (HRI; 0.3 µM): 90 % of control | residual kinase activity (MAP3K11; 0.03 µM): 100 % of control | residual kinase activity (MAP3K11; 0.3 µM): 74 % of control | residual kinase activity (PIM2; 0.03 µM): 115 % of control | residual kinase activity (PIM2; 0.3 µM): 83 % of control | residual kinase activity (PKCγ; 0.03 µM): 99 % of control | residual kinase activity (PKCγ; 0.3 µM): 54 % of control | residual kinase activity (SNARK; 0.03 µM): 99 % of control | residual kinase activity (SNARK; 0.3 µM): 64 % of control | residual kinase activity (p38Δ; 0.03 µM): 79 % of control | residual kinase activity (p38Δ; 0.3 µM): 24 % of control

Reference: article PMC11167047 (Cell Death Discovery, 2024)
